In patent US7560121B1 (LTS Lohmann Therapie-Systeme AG, priority 1999, dated 2009):
Where a name gives a salt, the structure may show the parent alone.

Key:
[1] = Solubility of fluphenazine dihydrochloride in poly(meth)acrylate pressure-sensitive adhesives; assay type: physicochemical
Excerpt: Addition of Eudragit E100 (Röhm Pharma GmbH) was therefore provided for in all cases. This poly-(meth)acrylate has trialkylamino groups in its lateral chain and is capable of functioning as an ion-exchange resin. In this way, the chloride ions of the fluphenazine dihydrochloride are bonded to Eudragit E100 while protons are accepted simultaneously, with fluphenazine being formed as a free base in a certain equilibrium. Advantageous is an at least equimolar ratio of Eudragit E100 and fluphenazine dihydrochloride, i.e. of amounts by weight having the same equivalent weight calculated as potassium hydroxide.

[2] = in vivo; cited from earlier work
[3] = In vitro skin permeation through human epidermis (modified Franz cell, HPLC); assay type: in vitro ADME; conditions: 32° C., Oppanol-based matrix with Eudragit E100 and oleic acid, n=3
Method: Skin permeability was examined in vitro using full thickness cow udder skin and human epidermis, the latter having been separated from human full-thickness skin by heat separation.
The tests were carried out at 32° C. in a suitable permeation device (modified Franz cell), and fluphenazine was measured in the resultant samples using a suitable HPLC method. All indicated values are based on n=3 samples.

SMILES	solubility in Durotak 387-2051 ([1]; with addition of Eudragit E100)	solubility in Durotak 387-2287 ([1]; with addition of Eudragit E100)	solubility in poly(meth)acrylate adhesive polymers or the organic solvents required for processing ([1]; without Eudragit E100, result in words)	half-life in blood plasma [2] [h]	maximum flow rate of fluphenazine base [3] [μg/h·cm^2]
OCCN1CCN(CCCN2c3ccccc3Sc3ccc(C(F)(F)F)cc32)CC1 [fluphenazine dihydrochloride]	at least 15 %-wt.	at least 10 %-wt.	almost insoluble	–	–
OCCN1CCN(CCCN2c3ccccc3Sc3ccc(C(F)(F)F)cc32)CC1 [fluphenazine]	–	–	–	15	2.9
